Source: patent publication US20050143392A1, “Chrysogenazine obtained from fungus Penicillium chrysogenum having antibacterial activity” (Council of Scientific & Industrial Research, priority 2003, published 2005)

Tested on: Vibrio cholerae MCM B-322
Assay: Antibacterial activity, simple disc diffusion (agar diffusion) technique
Experimental: In addition, standard discs of penicillin (10 units/disc), amphicillin (10 mcg/disc) and streptomycin (10 mcg/disc) were used to compare the sensitivity.
Antibacterial activity was determined using a Gram negative bacterial strain, Vibrio cholerae, in a agar diffusion assay, essentially as described by Chabbert, (1963) and Rinehart et.al.,(1981). […] Following an appropriate incubation interval, microbial growth inhibition was visualized and quantified by measuring the clear zone around each disc (Plate 1.). Comparison of this was made with the standard antibiotics (penicillin, amphicillin, and streptomycin).

SMILES	antibacterial activity against human pathogen Vibrio cholerae (in words) (disc diffusion, 5-30 mcg/disc)	zone of inhibition at 10 µg/disc (Vibrio cholerae, MCMB322) [mm]
CC(C)=CCc1[nH]c2ccccc2c1C=C1NC(=O)C(C)NC1=O (centres unmarked) [chrysogenazine, 3,1′-didehydro-3[2″(3′″,3′″-dimethyl-prop-2-enyl)-3″-indolylmethylene]-6-methylpiperazine-2,5-dione]	active	
[H]/N=C(/N)N[C@H]1[C@H](O)[C@@H](O)[C@H](O[C@@H]2O[C@@H](C)[C@](O)(C=O)[C@H]2O[C@@H]2O[C@@H](CO)[C@H](O)[C@@H](O)[C@@H]2NC)[C@@H](N/C(N)=N\[H])[C@@H]1O [streptomycin]		4 to 5
